Reference: patent US20210179680A1, “POLYPEPTIDE, DERIVATIVES THEREOF, AND APPLICATION THEREOF IN PREPARATION OF DRUGS HAVING RESISTANCE TO PULMONARY FIBROSIS” (priority 2016, published 2021)
Bridge positions count the residues as written; N and C are the ends. Square brackets hold non-standard residues; d marks the D form. Peptide text beside a SMILES is read from it. S5 = C=CCCC[C@](C)(N)C(=O)O

What was measured:
TRB3 protein = target: T1, TRB3 protein (Homo sapiens, UniProt Q96RU7); test: Surface plasmon resonance (Biacore T200) binding of polypeptides to TRB3 protein; conditions: SPR, FIG. 4-1, 4-2 and Table 1
T1 construct: purchased RD
T1 sequence (Q96RU7 1-358): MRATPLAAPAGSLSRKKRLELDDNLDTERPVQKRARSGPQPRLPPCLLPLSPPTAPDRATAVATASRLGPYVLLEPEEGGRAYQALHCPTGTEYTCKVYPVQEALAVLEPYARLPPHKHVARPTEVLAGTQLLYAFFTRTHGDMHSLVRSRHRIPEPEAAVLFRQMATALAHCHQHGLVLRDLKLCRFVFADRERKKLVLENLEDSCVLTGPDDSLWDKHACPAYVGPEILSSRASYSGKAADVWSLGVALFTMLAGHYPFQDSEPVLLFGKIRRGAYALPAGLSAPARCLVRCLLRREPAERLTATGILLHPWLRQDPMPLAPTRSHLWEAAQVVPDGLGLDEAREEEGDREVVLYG
Description: The surface plasmon resonance experiment was carried out in a surface plasmon resonator Biacore T200, and the procedure was carried out in accordance with the instructions of the plasma resonator Biacore T200. Specific steps are as follows:
1. Purified TRB3 protein (purchased from RD) was coupled to a CMS chip (purchased from GE) by amidogen, and the unbound protein was eluted at a flow rate of 10 μL/min. The surface of the chip was equilibrated for 2 hours. Among them, the specific steps of amidogen coupling, elution and equilibration refer to the relevant instruction of GE's CMS chip.
2. 250 μL of the S1-S11 and MR2 polypeptide fragments prepared in Example 1 with different concentrations (800, 400, 200, 50, 12.5, 6.25, and 3.125 nM) were automatically injected, and the entire surface plasmon resonance experiment was carried out at 25° C. The buffer used was HBS-EP buffer [0.01 M HEPES, 0.15 M NaCl, 3 mM EDTA and 0.005% (w/w) surfactant TWEEN20]. Biacore T200's built-in analysis software was used to simulate the binding curves of different concentrations of peptides to TRB3.

[1] = system: mice with bleomycin-induced pulmonary fibrosis; test: Survival rate of mice with bleomycin-induced pulmonary fibrosis; format: in vivo, C57BL/6 mice; conditions: twice a week
Description: (§1) Male C57BL/6 mice were fasted overnight, then anesthetized with 45 mg/kg sodium pentobarbital by injection intraperitoneally (i.p.), and intratracheally injected with bleomycin at a dose of 3 U/kg. The specific operation steps are as follows: cut the neck skin of the mouse with as little trauma as possible, expose the trachea with the assistance of elbow ophthalmic forceps, puncture the trachea and inject about 50 μL of bleomycin into the trachea with a microsyringe, rotate the mouse quickly and stand it upright for 5 minutes in order to make bleomycin evenly enter the left and right lobe, thereby constructing an animal model. The whole operation was performed at a surgical table at about […]. Mice in the sham operation group were intratracheally injected with an equal amount of physiological saline for injection.
The animal model with pulmonary fibrosis was prepared according to the method described in Example 2. The peptide therapy was started from the 10th day after modeling (the treatment groups are shown in Table 3), and the time was calculated from the 10th day after modeling to count the mortality rate. The death situation of each group of experimental animals was counted and calculated daily. […] The survival rate is the percentage of the number of mice that survived accounting for the number of mice in the whole group. Results are shown in FIG. 6-1, FIG. 6-2 and Table 4. […] In FIG. 6-1 and FIG. 6-2, “##” represents that P value is less than 0.01 when the survival rate of administration group was compared with that of the sham operation group; “*” represents that P value is less than 0.05 when the survival rate of administration group was compared with that of the bleomycin group; “**” represents that P value is less than 0.01 when the survival rate of administration group was compared with that of bleomycin group; and “i.p.” refers to intraperitoneal injection.
The animal model of pulmonary fibrosis was prepared according to the method described in Example 2. The polypeptide treatment was started from the 10th day after modeling (the treatment groups are shown in Table 9), and the time was calculated from the 10th day after modeling to count the mortality rate. The mortality rate of each group of experimental animals was recorded and calculated daily. If none of the animals in a group died, the survival rate of the group is 100%. If all the animals in a group died, the survival rate is 0%. […] In FIG. 12, “##” represents that P value is less than 0.01 when the survival rate of the administration groups were compared with that of the sham operation group; “*” represents that P value is less than 0.05 and “**” represents that P value is less than 0.01 when the survival rate of the administration groups were compared with bleomycin group.

[2] = system: mice with bleomycin-induced pulmonary fibrosis; test: HE staining pathomorphology and inflammatory score of bleomycin-induced pulmonary fibrosis; format: in vivo, C57BL/6 mice; conditions: 2 mg/kg i.p., after 28 days, grade 0-5; for Inflammatory score: Table 3 groups; for Inflammatory scoring: Table 9 groups
Description: as §1
General tissue changes and tissue products can be visualized by HE staining method, namely Hematoxylin and Eosin staining method, which is the most commonly used staining method for morphology. Among them, hematoxylin dyeing solution is an alkaline dyeing solution, which mainly makes the chromatin in the nucleus and the ribosome in the cytoplasm purple blue; eosin is an acid dye, which mainly makes the components in the cytoplasm and extracellular matrix red. Pulmonary fibrosis models were made according to the method described in Example 2 and administered in groups according to Table 3. After 28 days, the right lower lobe of lung tissue of the experimental animals was taken, and fixed with 4% (v/v) paraformaldehyde and embedded in paraffin. Section was performed on the largest cross-section of the paraffin block in which the lung tissue embedded, and basic pathological changes was observed through HE staining. […] The administration of polypeptides S1-S11 can reduce lung inflammation caused by bleomycin, and effectively ameliorate lung injury and restore normal lung structure.
The inflammatory grading was observed according to the results of HE staining, and the criteria were as follows (grade 0-5): grade “0”: normal tissue; grade “1”: extremely small inflammatory changes; grade “2”: mild to moderate inflammatory changes without apparent destruction of lung tissue structure; grade “3”: moderate inflammatory injury (thickening of alveolar diaphragm); grade “4”: moderate to severe inflammatory injury with formation of tissue mass, or the normal structure of lung tissue was destroyed by localized pneumonia area; grade “5”: severe inflammatory injury, severe destruction of the localized lung tissue structure, resulting in closure of lumen.
Pulmonary fibrosis models were made according to the method described in Example 2 and administered in groups according to Table 9. After 28 days, the right lower lobe of lung tissue of the experimental animals was taken, and fixed by 4% (v/v) paraformaldehyde and embedded in paraffin. Section was performed on the largest cross-section of the paraffin block in which the lung tissue embedded, and basic pathological changes was observed through HE staining.

[3] = Table 3 groups: 2 mg/kg i.p., 10th to 28th day after modeling
[4] = Table 9 groups (S19-S21): 2 mg/kg i.p., 10th to 28th day after modeling
[5] = Table 9 groups (S19-S21): 2 mg/kg i.p.

Row | Compound | interaction with the TRB3 protein (in words) (TRB3 protein) | Survival rate (%) 7 days [1, 3] | Survival rate (%) 14 days [1, 3] | Survival rate (%) 21 days [1, 3] | Survival rate (%) 28 days [1, 3] | Inflammatory score [2] | Survival rate (%) 7 days [1, 4] | Survival rate (%) 14 days [1, 5] | Survival rate (%) 21 days [1, 5] | Survival rate (%) 28 days [1, 5] | Inflammatory scoring [2]
1 | CSCC[C@H](NC(=O)[C@H](CC(C)C)NC(=O)[C@@H](N)Cc1c[nH]cn1)C(=O)N[C@@H](C)C(=O)N[C@@]1(C)CCCC=CCCC[C@@](C)(C(=O)N[C@@H](CCCCN)C(=O)N[C@@H](CCCCN)C(=O)N[C@@H](CC(C)C)C(=O)N[C@@H](CCCCN)C(=O)N[C@@H](CCCCN)C(=O)N[C@@H](CCCNC(=N)N)C(=O)O)NC(=O)[C@H](CS)NC(=O)[C@H]([C@@H](C)O)NC(=O)[C@H](Cc2ccccc2)NC1=O [S5, His-Leu-Met-Ala-S5-Phe-Thr-Cys-S5-Lys-Lys-Leu-Lys-Lys-Arg] (H-HLMA[S5]FTC[S5]KKLKKR-OH; staple 5-9; N-terminus and C-terminus assumed) | interacted with the TRB3 protein | 100% | 100% | 93.33% | 93.33% | 2.333 |  |  |  |  | 
2 | CSCC[C@@H]1NC(=O)[C@@](C)(NC(=O)[C@@H](N)Cc2c[nH]cn2)CCCC=CCCC[C@@](C)(C(=O)N[C@H](C(=O)N[C@@H](CS)C(=O)N[C@@H](C)C(=O)N[C@@H](CCCCN)C(=O)N[C@@H](CCCCN)C(=O)N[C@@H](CC(C)C)C(=O)N[C@@H](CCCCN)C(=O)N[C@@H](CCCCN)C(=O)N[C@@H](CCCNC(=N)N)C(=O)O)[C@@H](C)O)NC(=O)[C@H](CS)NC(=O)[C@H](C)NC1=O [S2, His-S5-Met-Ala-Cys-S5-Thr-Cys-Ala-Lys-Lys-Leu-Lys-Lys-Arg] (H-H[S5]MAC[S5]TCAKKLKKR-OH; staple 2-6; N-terminus and C-terminus assumed) | interacted with the TRB3 protein | 100% | 100% | 80% | 80% | 2.667 |  |  |  |  | 
3 | CSCC[C@H](NC(=O)[C@H](CC(C)C)NC(=O)[C@@H](N)Cc1c[nH]cn1)C(=O)N[C@@H](C)C(=O)N[C@@H](CS)C(=O)N[C@@H](Cc1ccccc1)C(=O)N[C@H](C(=O)N[C@@H](CS)C(=O)N[C@@]1(C)CCCC=CCCC[C@@](C)(C(=O)N[C@@H](CCCCN)C(=O)N[C@@H](CCCNC(=N)N)C(=O)O)NC(=O)[C@H](CC(C)C)NC(=O)[C@H](CCCCN)NC(=O)[C@H](CCCCN)NC1=O)[C@@H](C)O [S9, His-Leu-Met-Ala-Cys-Phe-Thr-Cys-S5-Lys-Lys-Leu-S5-Lys-Arg] (H-HLMACFTC[S5]KKL[S5]KR-OH; staple 9-13; N-terminus and C-terminus assumed) | interacted with the TRB3 protein | 100% | 93.33% | 93.33% | 93.33% | 2.167 |  |  |  |  | 
4 | CSCC[C@@H]1NC(=O)[C@H](CC(C)C)NC(=O)[C@@](C)(N)CCCC=CCCC[C@@](C)(C(=O)N[C@@H](Cc2ccccc2)C(=O)N[C@H](C(=O)N[C@@H](CS)C(=O)N[C@@H](C)C(=O)N[C@@H](CCCCN)C(=O)N[C@@H](CCCCN)C(=O)N[C@@H](CC(C)C)C(=O)N[C@@H](CCCCN)C(=O)N[C@@H](CCCCN)C(=O)N[C@@H](CCCNC(=N)N)C(=O)O)[C@@H](C)O)NC(=O)[C@H](C)NC1=O [S1, S5-Leu-Met-Ala-S5-Phe-Thr-Cys-Ala-Lys-Lys-Leu-Lys-Lys-Arg] (H-[S5]LMA[S5]FTCAKKLKKR-OH; staple 1-5; N-terminus and C-terminus assumed) | interacted with the TRB3 protein | 100% | 86.67% | 80% | 80% | 2.667 |  |  |  |  | 
5 | S20: chimeric polypeptide TAT-MR2, amino acid sequence SEQ ID NO: 20 (YGRKKRRQRRRGGHLMACFTCAKKLKKR; chimeric polypeptide TAT-MR2 S20) |  |  |  |  |  |  | 100% | 91.67% | 75% | 75% | 2.333
6 | S19: chimeric polypeptide Pep2-MR2, amino acid sequence SEQ ID NO: 19 (HLYVSPWGGHLMACFTCAKKLKKR; chimeric polypeptide Pep2-MR2 S19) |  |  |  |  |  |  | 100% | 100% | 90% | 90% | 1.833
7 | S21: chimeric polypeptide Antp-MR2, amino acid sequence SEQ ID NO: 21 (RQIKIWFQNRRMKWKKGGHLMACFTCAKKLKKR; chimeric polypeptide Antp-MR2 S21) |  |  |  |  |  |  | 100% | 100% | 75% | 75% | 2.667
